In article PMC4032265 (PLoS ONE, 2014):
Read-outs that look alike come from different tables or passages of the source.

Tests used:
hA2AAR [1] = biological target: T1, hA2AAR (Homo sapiens, UniProt P29274); set-up: method as in earlier work; settings: ref 1-4 of Table S1 (Tosh et al. 2009, 2012); cited from earlier work
[2] = biological target: H2 histaminergic receptor (Homo sapiens, UniProt P25021); assay: PDSP radioligand binding, H2; settings: read-out: % inhibition at 10 µM
D1 dopaminergic receptor = D1 dopaminergic receptor (Homo sapiens, UniProt P21728); assay: PDSP radioligand binding, D1; settings: read-out: % inhibition at 10 µM
hA1AR [3] = biological target: T2, hA1AR (Homo sapiens, UniProt P30542); settings: ref 1-4 of Table S1 (Tosh et al. 2009, 2012); cited from earlier work
T2 sequence (P30542 1-326): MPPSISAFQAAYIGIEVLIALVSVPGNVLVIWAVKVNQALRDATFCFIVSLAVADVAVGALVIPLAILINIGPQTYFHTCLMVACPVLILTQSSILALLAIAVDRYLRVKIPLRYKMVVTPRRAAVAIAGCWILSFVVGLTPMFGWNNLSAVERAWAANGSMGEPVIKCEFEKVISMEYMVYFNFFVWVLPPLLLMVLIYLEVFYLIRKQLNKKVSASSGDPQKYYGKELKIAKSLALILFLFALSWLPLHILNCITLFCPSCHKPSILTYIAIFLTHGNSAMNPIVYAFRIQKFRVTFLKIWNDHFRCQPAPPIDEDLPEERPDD

5HT2C receptor = 5HT2C receptor (Homo sapiens, UniProt P28335); assay: 5HT2C functional assay, antagonist mode (inhibition of agonist activity); type: cell-based; settings: 10 µM
5HT2B receptor = 5HT2B receptor (Homo sapiens, UniProt P41595); assay: 5HT2B functional assay, antagonist mode (inhibition of agonist activity); type: cell-based; settings: for % inhibition as antagonist at 5HT2B: 10 µM; for IC50: antagonist mode
hA2AAR [4] = biological target: T1, hA2AAR; assay: Radioligand binding at hA2AAR; settings: compounds 8 and 9, measured for this study
hA3AR = hA3AR (Homo sapiens, UniProt P0DMS8); assay: Radioligand binding at hA3AR
hA1AR [5] = biological target: T2, hA1AR; assay: Radioligand binding at hA1AR; settings: compounds 8 and 9, measured for this study
α2C adrenergic receptor = biological target: T3, α2C adrenergic receptor (Homo sapiens, UniProt P18825); assay: α2C adrenergic receptor functional assay (antagonist); type: cell-based
T3 sequence (P18825 1-462): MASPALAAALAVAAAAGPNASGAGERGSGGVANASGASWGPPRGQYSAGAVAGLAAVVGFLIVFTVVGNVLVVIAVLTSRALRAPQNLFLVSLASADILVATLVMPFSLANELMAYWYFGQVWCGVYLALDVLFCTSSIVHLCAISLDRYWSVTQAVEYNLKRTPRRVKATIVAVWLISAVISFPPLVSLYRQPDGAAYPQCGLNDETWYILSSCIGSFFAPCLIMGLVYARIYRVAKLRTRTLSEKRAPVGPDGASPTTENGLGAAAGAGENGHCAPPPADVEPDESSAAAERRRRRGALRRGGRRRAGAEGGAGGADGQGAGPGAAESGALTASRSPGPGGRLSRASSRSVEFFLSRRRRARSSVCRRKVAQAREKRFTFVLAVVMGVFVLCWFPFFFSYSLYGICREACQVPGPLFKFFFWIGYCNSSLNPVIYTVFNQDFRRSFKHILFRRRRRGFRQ

KXα3β4 receptor 2 = biological target: T4, KXα3β4 receptor 2 (Rattus norvegicus, UniProt P04757+P12392); assay: 86Rb+ efflux, nicotinic acetylcholine receptor antagonist activity, KXα3β4 receptor 2 cells; type: cell-based; settings: cells expressing KXα3β4 receptor 2
T4 construct: expressed in transfected cells; host or cells: KXα3β4 receptor 2 (KXα3β4R2) cells

YXα3β4H1 receptor = biological target: T5, YXα3β4H1 receptor (Homo sapiens, UniProt P30926+P32297); assay: 86Rb+ efflux, nicotinic acetylcholine receptor antagonist activity, YXα3β4H1 cells; type: cell-based; settings: cells expressing YXα3β4H1 receptor
T5 construct: expressed in transfected cells

KXα4β2 receptor 2 = biological target: T6, KXα4β2 receptor 2 (Rattus norvegicus, UniProt P09483+P12390); assay: [3H]epibatidine binding in cells expressing KXα4β2 receptor 2
T6 construct: expressed in transfected cells

[6] = read-out: IC50 at 5HT2B receptors (Figure S2)

CNC(=O)[C@@]12C[C@@H]1[C@@H](n1cnc3c(NCc4cccc(Cl)c4)nc(C#Cc4ccc(F)c(F)c4)nc31)[C@H](O)[C@@H]2O [Compound 1]
hA2AAR % inhibition (hA2AAR [1]): 41%±10%
inhibition at 10 µM [2]: 34%
inhibition at 10 µM (D1 dopaminergic receptor): 13%
hA1AR % inhibition (hA1AR [3]): < 10%

CNC(=O)[C@@]12C[C@@H]1[C@@H](n1cnc3c(NCc4cccc(Cl)c4)nc(C#Cc4ccc(F)cc4)nc31)[C@H](O)[C@@H]2O [Compound 2]
hA2AAR % inhibition (hA2AAR [1]): 42%±2%
inhibition at 10 µM (D1 dopaminergic receptor; single concentration 10 µM): 19%
hA1AR % inhibition (hA1AR [3]): 20%±6%

CNC(=O)[C@@]12C[C@@H]1[C@@H](n1cnc3c(NCc4cccc(Cl)c4)nc(C#Cc4ccccc4Cl)nc31)[C@H](O)[C@@H]2O [Compound 3]
hA2AAR % inhibition (hA2AAR [1]): 52%±12%
inhibition at 10 µM (D1 dopaminergic receptor; single concentration 10 µM): 27%
hA1AR % inhibition (hA1AR [3]): 19%±2%

CNC(=O)[C@@]12C[C@@H]1[C@@H](n1cnc3c(NCc4cccc(Cl)c4)nc(Cl)nc31)[C@H](O)[C@@H]2O [Compound 4]
% inhibition as antagonist at 5HT2C (5HT2C receptor): 94%
inhibition at 10 µM (D1 dopaminergic receptor; single concentration 10 µM): 11%
% inhibition as antagonist at 5HT2B (5HT2B receptor): 60%
IC50 (5HT2B receptor; read-out: IC50, inhibition of agonist activity at 5HT2B): 0.887 µM
IC50 (5HT2B receptor; [6]): 3.26 µM

CNC(=O)[C@@]12C[C@@H]1[C@@H](n1cnc3c(NC)nc(C#Cc4ccc(F)c(F)c4)nc31)[C@H](O)[C@@H]2O [Compound 5]
hA2AAR % inhibition (hA2AAR [1]): < 10%
inhibition at 10 µM (D1 dopaminergic receptor; single concentration 10 µM): 0%
hA1AR % inhibition (hA1AR [3]): < 10%

O[C@@H]1[C@H](O)[C@@H]2C[C@@H]2[C@H]1n1cnc2c(NCc3cccc(Cl)c3)nc(C#Cc3ccc(F)c(F)c3)nc21 [Compound 6]
inhibition at 10 µM ([2]; single concentration 10 µM): 0%
inhibition at 10 µM (D1 dopaminergic receptor; single concentration 10 µM): 3%
hA1AR % inhibition (hA1AR [3]): 29%±1%

O[C@@H]1[C@H](O)[C@@H]2C[C@@H]2[C@H]1n1cnc2c(NCc3cccc(Cl)c3)ncnc21 [Compound 7]
inhibition at 10 µM (D1 dopaminergic receptor; single concentration 10 µM): 2%

Fc1ccc(C#Cc2nc(NCc3cccc(Cl)c3)c3nc[nH]c3n2)cc1F [Compound 8]
hA2AAR % inhibition (hA2AAR [4]): < 10%
Ki (hA3AR): 0.12 µM
hA1AR % inhibition (hA1AR [5]): < 10%
inhibition at 10 µM (D1 dopaminergic receptor; single concentration 10 µM): 0%

Clc1cccc(CNc2nc(Cl)nc3[nH]cnc23)c1 [Compound 9]
hA2AAR % inhibition (hA2AAR [4]): 37%±1%
% inhibition as antagonist at 5HT2C (5HT2C receptor): 65%
Ki (hA3AR): 0.165 µM
hA1AR % inhibition (hA1AR [5]): 45%±3%
inhibition at 10 µM (D1 dopaminergic receptor; single concentration 10 µM): 0%
% inhibition as antagonist at 5HT2B (5HT2B receptor): 26%
IC50 (5HT2B receptor; [6]): 0.89 µM
IC50 (α2C adrenergic receptor): 2.9 µM

O[C@@H]1[C@H](O)[C@@H]2C[C@@H]2[C@H]1n1cnc2c(NC(C3CC3)C3CC3)nc(Cl)nc21 [Compound 10]
IC50 (KXα3β4 receptor 2): 21.2 µM
IC50 (YXα3β4H1 receptor): 30.3 µM
inhibition of [3H]epibatidine binding (KXα4β2 receptor 2): no inhibition
inhibition at 10 µM ([2]; single concentration 10 µM): 13%
inhibition at 10 µM (D1 dopaminergic receptor; single concentration 10 µM): 0%
